# Experimental data reported in US20260070945A1, “MACROCYCLIC IMMUNOMODULATORS” (Bristol-Myers Squibb Company, priority 2022, published 2026).
# Where a SMILES comes first, the peptide text is derived from it. Bridges are numbered along the chain shown (N, C = ends). [ ]: non-standard residue; d: D form. The star is where a group is joined. ξ: configuration not given here. Trp(1-CH2COOH) = N[C@@H](Cc1cn(CC(=O)O)c2ccccc12)C(=O)O; Phe(3-CF3) = N[C@@H](Cc1cccc(C(F)(F)F)c1)C(=O)O; Phe(4-COOH) = N[C@@H](Cc1ccc(C(=O)O)cc1)C(=O)O; Bip = N[C@@H](Cc1ccc(-c2ccccc2)cc1)C(=O)O; Phe(3-Me) = Cc1cccc(C[C@H](N)C(=O)O)c1; NH(CH2)12COOH = O=C(O)CCCCCCCCCCCCN*; Val(3-OH) = CC(C)(O)[C@H](N)C(=O)O; Cha = N[C@@H](CC1CCCCC1)C(=O)O; Cit = NC(=O)NCCC[C@H](N)C(=O)O; ξY = NC(Cc1ccc(O)cc1)C(=O)O; Carboxymethyl = O=C(O)C*; NMeA = CN[C@@H](C)C(=O)O; Aun = NCCCCCCCCCCC(=O)O; Dab = NCC[C@H](N)C(=O)O; AEEA = NCCOCCOCC(=O)O
# Target: T1, PD-1/PD-L1 interaction (PE-labeled human PD-L1-Ig binding to Jurkat cell line over-expressing human PD-1) (Homo sapiens, UniProt Q15116)
# T1 construct: expressed in transfected cells; host or cells: Jurkat
# T1 sequence (Q15116 25-288): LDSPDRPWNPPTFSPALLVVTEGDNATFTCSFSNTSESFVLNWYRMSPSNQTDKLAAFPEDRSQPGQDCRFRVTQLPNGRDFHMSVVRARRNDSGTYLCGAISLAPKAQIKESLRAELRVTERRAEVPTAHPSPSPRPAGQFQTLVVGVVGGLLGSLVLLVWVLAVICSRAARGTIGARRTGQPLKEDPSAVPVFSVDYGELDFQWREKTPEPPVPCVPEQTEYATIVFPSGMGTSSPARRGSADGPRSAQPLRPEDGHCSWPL
# Experiment: Jurkat-PD-1 Cell Binding High-Content Screening Assay (CBA)
# Conditions: Jurkat-hPD-1 cells, PE-labeled PD-L1-Ig 20 nM final; read-out: Jurkat HPD1 PDL1 IC50
# Procedure, shortened: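 Binding of 20 nM (final) PE-tagged PD-L1-Ig to compound-pretreated Jurkat-hPD-1 cells was measured by high-content imaging after 1 h. Pretreatment ran 2 h at 37 °C in DMEM with 10% fetal calf serum.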
row,SMILES,IC50 [nM]
1,CC(C)C[C@@H]1NC(=O)[C@H](Cc2c[nH]c3ccccc23)NC(=O)[C@H](CC(=O)O)NC(=O)[C@H](Cc2ccc(C(=O)O)cc2)NC(=O)[C@H](Cc2ccc(OCC(=O)O)cc2)NC(=O)CSC[C@@H](C(=O)N[C@@H](CCN)C(=O)NCCOCCOCC(=O)NCCCCCCCCCCC(=O)O)NC(=O)[C@H](CCN)NC(=O)[C@H](C(C)(C)O)NC(=O)[C@H](CC2CCCCC2)NC(=O)[C@H](CCN)NC(=O)[C@@H](CC(C)C)NC(=O)[C@H](C)N(C)C(=O)[C@H](C(C)C)NC(=O)[C@H](Cc2ccc(-c3ccccc3)cc2)NC1=O [Example 1127] ({CH2CO}-Y(Carboxymethyl)[Phe(4-COOH)]DWL[Bip]V[NMeA][dL][Dab][Cha][Val(3-OH)][Dab]C[Dab][AEEA][Aun]-OH; thioether N-14),3.8
2,CC(C)C[C@@H]1NC(=O)[C@H](Cc2c[nH]c3ccccc23)NC(=O)[C@H](CC(=O)O)NC(=O)[C@H](Cc2ccc(C(=O)O)cc2)NC(=O)[C@H](Cc2ccc(OCC(=O)O)cc2)NC(=O)CSC[C@@H](C(=O)N[C@@H](CCN)C(=O)NCCOCCOCC(=O)NCCCCCCCCCCC(=O)O)NC(=O)[C@H](Cc2cnc[nH]2)NC(=O)[C@H](C(C)(C)O)NC(=O)[C@H](CC2CCCCC2)NC(=O)[C@H](CCN)NC(=O)[C@@H](CC(C)C)NC(=O)[C@H](C)N(C)C(=O)[C@H](C(C)C)NC(=O)[C@H](Cc2ccc(-c3ccccc3)cc2)NC1=O [Example 1129] ({CH2CO}-Y(Carboxymethyl)[Phe(4-COOH)]DWL[Bip]V[NMeA][dL][Dab][Cha][Val(3-OH)]HC[Dab][AEEA][Aun]-OH; thioether N-14),6.7
3,CC(C)C[C@@H]1NC(=O)[C@H](Cc2c[nH]c3ccccc23)NC(=O)[C@H](CC(=O)O)NC(=O)[C@H](Cc2ccc(C(=O)O)cc2)NC(=O)[C@H](Cc2ccc(OCC(=O)O)cc2)NC(=O)CSC[C@@H](C(=O)N[C@@H](CCN)C(=O)NCCOCCOCC(=O)NCCCCCCCCCCC(=O)O)NC(=O)[C@H](Cc2cnc[nH]2)NC(=O)[C@H](C(C)C)NC(=O)[C@H](CC2CCCCC2)NC(=O)[C@H](CCN)NC(=O)[C@@H](CC(C)C)NC(=O)[C@H](C)N(C)C(=O)[C@H](C(C)C)NC(=O)[C@H](Cc2ccc(-c3ccccc3)cc2)NC1=O [Example 1130] ({CH2CO}-Y(Carboxymethyl)[Phe(4-COOH)]DWL[Bip]V[NMeA][dL][Dab][Cha]VHC[Dab][AEEA][Aun]-OH; thioether N-14),12.3
4,Cc1cccc(C[C@@H]2NC(=O)[C@H](CC(=O)O)NC(=O)[C@H](Cc3cn(CC(=O)O)c4ccccc34)NC(=O)[C@H](CCN)NC(=O)CSC[C@@H](C(=O)N[C@@H](CCN)C(=O)NCCCCCCCCCCC(=O)O)NC(=O)[C@H]([C@@H](C)O)NC(=O)[C@H](C(C)C)NC(=O)[C@H](CC3CCCCC3)NC(=O)[C@H](CCN)NC(=O)[C@@H](CC(C)C)NC(=O)[C@H](C)N(C)C(=O)[C@H](Cc3ccc(OCC(=O)O)cc3)NC(=O)[C@H](Cc3ccc(-c4ccccc4)cc3)NC(=O)C(Cc3ccc(OCC(=O)O)cc3)NC2=O)c1 (stereo partly drawn) [Example 1133] ({CH2CO}-[Dab][Trp(1-CH2COOH)]D[Phe(3-Me)][ξY](Carboxymethyl)[Bip]Y(Carboxymethyl)[NMeA][dL][Dab][Cha]VTC[Dab][Aun]-OH; thioether N-14),29.3
5,COC[C@@H]1NC(=O)CSC[C@@H](C(=O)N[C@@H](CCN)C(=O)NCCCCCCCCCCCCC(=O)O)NC(=O)[C@H](CC(=O)O)NC(=O)[C@H](C(C)(C)O)NC(=O)[C@H](CC2CCCCC2)NC(=O)[C@H](CCN)NC(=O)[C@@H](CC(C)C)NC(=O)[C@H](C)N(C)C(=O)[C@H](CCC(N)=O)NC(=O)[C@H](Cc2ccc(-c3ccccc3)cc2)NC(=O)[C@H](Cc2ccc(C(=O)O)cc2)NC(=O)[C@H](Cc2cccc(C(F)(F)F)c2)NC(=O)[C@H](CC(=O)O)NC(=O)[C@H](Cc2ccc(OCC(=O)O)cc2)NC1=O [Example 1134] ({CH2CO}-S(Me)Y(Carboxymethyl)D[Phe(3-CF3)][Phe(4-COOH)][Bip]Q[NMeA][dL][Dab][Cha][Val(3-OH)]DC[Dab]-{NH(CH2)12COOH}; thioether N-14),15.3
6,COC[C@@H]1NC(=O)CSC[C@@H](C(=O)N[C@@H](CCN)C(=O)NCCCCCCCCCCCCC(=O)O)NC(=O)[C@H](CCC(=O)O)NC(=O)[C@H](C(C)C)NC(=O)[C@H](CC2CCCCC2)NC(=O)[C@H](CCN)NC(=O)[C@@H](CC(C)C)NC(=O)[C@H](C)N(C)C(=O)[C@H](CCC(N)=O)NC(=O)[C@H](Cc2ccc(-c3ccccc3)cc2)NC(=O)[C@H](Cc2ccc(C(=O)O)cc2)NC(=O)[C@H](Cc2cccc(C(F)(F)F)c2)NC(=O)[C@H](CC(=O)O)NC(=O)[C@H](Cc2ccc(OCC(=O)O)cc2)NC1=O [Example 1135] ({CH2CO}-S(Me)Y(Carboxymethyl)D[Phe(3-CF3)][Phe(4-COOH)][Bip]Q[NMeA][dL][Dab][Cha]VEC[Dab]-{NH(CH2)12COOH}; thioether N-14),12.5
7,COC[C@@H]1NC(=O)CSC[C@@H](C(=O)N[C@@H](CCN)C(=O)NCCCCCCCCCCCCC(=O)O)NC(=O)[C@H](CO)NC(=O)[C@H](C(C)(C)O)NC(=O)[C@H](CC2CCCCC2)NC(=O)[C@H](CCN)NC(=O)[C@@H](CC(C)C)NC(=O)[C@H](C)N(C)C(=O)[C@H](CCC(N)=O)NC(=O)[C@H](Cc2ccc(-c3ccccc3)cc2)NC(=O)[C@H](Cc2ccc(C(=O)O)cc2)NC(=O)[C@H](Cc2cccc(C(F)(F)F)c2)NC(=O)[C@H](CC(=O)O)NC(=O)[C@H](Cc2ccc(OCC(=O)O)cc2)NC1=O [Example 1136] ({CH2CO}-S(Me)Y(Carboxymethyl)D[Phe(3-CF3)][Phe(4-COOH)][Bip]Q[NMeA][dL][Dab][Cha][Val(3-OH)]SC[Dab]-{NH(CH2)12COOH}; thioether N-14),18.1
8,COC[C@@H]1NC(=O)CSC[C@@H](C(=O)N[C@@H](CCN)C(=O)NCCCCCCCCCCCCC(=O)O)NC(=O)[C@H](Cc2c[nH]cn2)NC(=O)[C@H](C(C)(C)O)NC(=O)[C@H](CC2CCCCC2)NC(=O)[C@H](CCN)NC(=O)[C@@H](CC(C)C)NC(=O)[C@H](C)N(C)C(=O)[C@H](CCC(N)=O)NC(=O)[C@H](Cc2ccc(-c3ccccc3)cc2)NC(=O)[C@H](Cc2ccc(C(=O)O)cc2)NC(=O)[C@H](Cc2cccc(C(F)(F)F)c2)NC(=O)[C@H](CC(=O)O)NC(=O)[C@H](Cc2ccc(OCC(=O)O)cc2)NC1=O [Example 1137] ({CH2CO}-S(Me)Y(Carboxymethyl)D[Phe(3-CF3)][Phe(4-COOH)][Bip]Q[NMeA][dL][Dab][Cha][Val(3-OH)]HC[Dab]-{NH(CH2)12COOH}; thioether N-14),13.5
9,COC[C@@H]1NC(=O)CSC[C@@H](C(=O)N[C@@H](CCN)C(=O)NCCCCCCCCCCCCC(=O)O)NC(=O)[C@H](CC(=O)O)NC(=O)[C@H](C(C)(C)O)NC(=O)[C@H](CC2CCCCC2)NC(=O)[C@H](CCN)NC(=O)[C@@H](CC(C)C)NC(=O)[C@H](C)N(C)C(=O)[C@H](CCCNC(N)=O)NC(=O)[C@H](Cc2ccc(-c3ccccc3)cc2)NC(=O)[C@H](Cc2ccc(C(=O)O)cc2)NC(=O)[C@H](Cc2cccc(C(F)(F)F)c2)NC(=O)[C@H](CC(=O)O)NC(=O)[C@H](Cc2ccc(OCC(=O)O)cc2)NC1=O [Example 1138] ({CH2CO}-S(Me)Y(Carboxymethyl)D[Phe(3-CF3)][Phe(4-COOH)][Bip][Cit][NMeA][dL][Dab][Cha][Val(3-OH)]DC[Dab]-{NH(CH2)12COOH}; thioether N-14),11.2
10,COC[C@@H]1NC(=O)CSC[C@@H](C(=O)N[C@@H](CCN)C(=O)NCCCCCCCCCCCCC(=O)O)NC(=O)[C@H](CCC(=O)O)NC(=O)[C@H](C(C)C)NC(=O)[C@H](CC2CCCCC2)NC(=O)[C@H](CCN)NC(=O)[C@@H](CC(C)C)NC(=O)[C@H](C)N(C)C(=O)[C@H](CCCNC(N)=O)NC(=O)[C@H](Cc2ccc(-c3ccccc3)cc2)NC(=O)[C@H](Cc2ccc(C(=O)O)cc2)NC(=O)[C@H](Cc2cccc(C(F)(F)F)c2)NC(=O)[C@H](CC(=O)O)NC(=O)[C@H](Cc2ccc(OCC(=O)O)cc2)NC1=O [Example 1139] ({CH2CO}-S(Me)Y(Carboxymethyl)D[Phe(3-CF3)][Phe(4-COOH)][Bip][Cit][NMeA][dL][Dab][Cha]VEC[Dab]-{NH(CH2)12COOH}; thioether N-14),12.7
11,COC[C@@H]1NC(=O)CSC[C@@H](C(=O)N[C@@H](CCN)C(=O)NCCCCCCCCCCCCC(=O)O)NC(=O)[C@H](CO)NC(=O)[C@H](C(C)(C)O)NC(=O)[C@H](CC2CCCCC2)NC(=O)[C@H](CCN)NC(=O)[C@@H](CC(C)C)NC(=O)[C@H](C)N(C)C(=O)[C@H](CCCNC(N)=O)NC(=O)[C@H](Cc2ccc(-c3ccccc3)cc2)NC(=O)[C@H](Cc2ccc(C(=O)O)cc2)NC(=O)[C@H](Cc2cccc(C(F)(F)F)c2)NC(=O)[C@H](CC(=O)O)NC(=O)[C@H](Cc2ccc(OCC(=O)O)cc2)NC1=O [Example 1140] ({CH2CO}-S(Me)Y(Carboxymethyl)D[Phe(3-CF3)][Phe(4-COOH)][Bip][Cit][NMeA][dL][Dab][Cha][Val(3-OH)]SC[Dab]-{NH(CH2)12COOH}; thioether N-14),25.4
12,COC[C@@H]1NC(=O)CSC[C@@H](C(=O)N[C@@H](CCN)C(=O)NCCCCCCCCCCCCC(=O)O)NC(=O)[C@H](Cc2c[nH]cn2)NC(=O)[C@H](C(C)(C)O)NC(=O)[C@H](CC2CCCCC2)NC(=O)[C@H](CCN)NC(=O)[C@@H](CC(C)C)NC(=O)[C@H](C)N(C)C(=O)[C@H](CCCNC(N)=O)NC(=O)[C@H](Cc2ccc(-c3ccccc3)cc2)NC(=O)[C@H](Cc2ccc(C(=O)O)cc2)NC(=O)[C@H](Cc2cccc(C(F)(F)F)c2)NC(=O)[C@H](CC(=O)O)NC(=O)[C@H](Cc2ccc(OCC(=O)O)cc2)NC1=O [Example 1141] ({CH2CO}-S(Me)Y(Carboxymethyl)D[Phe(3-CF3)][Phe(4-COOH)][Bip][Cit][NMeA][dL][Dab][Cha][Val(3-OH)]HC[Dab]-{NH(CH2)12COOH}; thioether N-14),18.2
